What all share (assay): in-line probing
Experiment [1] has as its system 92 allB (RNA, riboswitch) GGCAGAAUAAGCUCUUGUAUAAGCUCAUUAAUCCGGUUUGAGCGUUUCGACCAGGCGACCGUAAAUUGCCCCAGGCUACAAGAGGUGCAGGAAA
The following applies: 100 mM K+, 20 mM Mg2+, 100 mM Tris-HCl pH 8.3, room temperature, ~40 h.

The test system of experiment [2] is 92 PRT (RNA, riboswitch) GGAAUCAAACAUCUCUUGUAUAAGCUCGUUAAUUUGGAAUGAGCGUAUCUACAGGCAACCGUAAAUUGCCCCAGGCUACAAGAGGCCAGACAAG
The conditions noted are these: 100 mM K+, 20 mM Mg2+.

For experiment [3], the system named is 94 nuc (RNA, riboswitch) GGAAAAAAAAUUAUUUUUCGUAUAUCCUUAAUGAUAUGGUUUAAGGGCAAUACAUAGAAACCACAAAUUUCUUACUGCGAAAAAUAUGCUUCUUUA
The following applies: 100 mM K+, 20 mM Mg2+; 100 mM Tris-HCl pH 8.3, room temperature, ~40 h.

A value given as a limit tells only on which side of the number the result lay.

Regarding `Nc1nc2[nH]cnc2c(=O)[nH]1`, the binding entry in experiment [1] (100 µM compound) is given as “no”. The same compound returned a KD in experiment [2] of less than 8.3 nM.
With `O=c1[nH]c(=O)c2[nH]cnc2[nH]1`, the KD in experiment [1] is on record as ~ 36.5 µM. Also, the binding entry in experiment [2] (100 mM Tris-HCl pH 8.3, room temperature, ~40 h, 100 µM compound) is on record as “no”.
`Nc1nc2c(ncn2[C@H]2C[C@H](O)[C@@H](CO)O2)c(=O)[nH]1`: in experiment [3], the KD is ~ 1.5 μM.

The KD is the constant that tells how readily two partners part at equilibrium. Read a low KD as tighter binding.

For the origin of these results see PMC9295807 (2022).
